In PMC10714400, “Antimicrobial Peptide–Peptoid Hybrids with and without Membrane Disruption” (ACS Infectious Diseases, 2023):
Converted amounts (≈) assume the structure as drawn. Like-named read-outs stand apart in the source and are kept apart here. Where a SMILES comes first, the peptide text is derived from it. [ ]: non-standard residue; d: D form. Nleu = CC(C)CNCC(=O)O; Nlys = NCCCCNCC(=O)O

How the values were obtained:
[1] = system: E. coli W3110; experiment: Time–kill assay; type: cell-based, Escherichia coli; conditions: E. coli W3110, diluted MH at pH 8.5
Source text: Figure 1 Killing profile of selected compounds on bacteria a) against E. coli W3110 measured in full MH at pH 7.4, b) against P. aeruginosa PAO1 in full MH at pH 7.4, c) against E. coli W3110 in diluted MH at pH 8.5, and d) against P. aeruginosa PAO1 in dilute MH at pH 8.5. The assay was repeated twice in triplicate, and the data represent the mean ± SD, n = 6.

[2] = system: K. pneumoniae NCTC418; conditions: for MIC K. pneumoniae NCTC418 […] 7.4 / MIC K. pneumoniae NCTC418 […] 8.5 / MIC K. pneumoniae NCTC418 Full MH 7.4 / MIC K. pneumoniae NCTC418 Full MH 8.5: Table S2; for MIC K. pneumoniae NCTC418 […] 7.4 / MIC K. pneumoniae NCTC418 […] 8.5: […] MH; for MIC K. pneumoniae NCTC418 […]: diluted MH ([…] MH, pH 8.5) per Table 1 footnote b, 16–20 h at 37 °C; for MIC K. pneumoniae NCTC418 Full MH 7.4 / MIC K. pneumoniae NCTC418 Full MH 8.5 / MIC K. pneumoniae NCTC418 Full: full MH; for MIC K. pneumoniae NCTC418 Full: pH 7.4, 16–20 h at 37 °C
Outline: (§1)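 MTT added (20–30 min, room temperature); MIC read by eye as lowest concentration inhibiting visible growth (yellow). Polymyxin B positive control from 16 μg/mL.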

[3] = system: PA14 4.18 (pmrB); conditions: for MIC P. aeruginosa PA14 4.18, […] MH at pH 8.5 / MIC P. aeruginosa PA14 4.18, full MH at pH 7.4: CSV; for MIC P. aeruginosa PA14 4.18: Table S3; for MIC P. aeruginosa PA14 4.18, […] MH at pH 8.5 / MIC P. aeruginosa PA14 4.18: […] MH at pH 8.5
Outline: (§2)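 MICs were determined by broth microdilution in MH medium, with approximately 5 × 10^5 CFU added per well and plates held at 37 °C for about 18 h without shaking.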

[4] = system: P. aeruginosa PAO1; conditions: for MIC P. aeruginosa PAO1 […] 7.4 / MIC P. aeruginosa PAO1 […] 8.5 / MIC P. aeruginosa PAO1 Full MH 7.4 / MIC P. aeruginosa PAO1 Full MH 8.5: Table S2; for MIC P. aeruginosa PAO1 […] 7.4 / MIC P. aeruginosa PAO1 […] 8.5: […] MH; for MIC P. aeruginosa PAO1 […] 8.5 / MIC P. aeruginosa PAO1 Full MH 8.5: pH 8.5; for MIC P. aeruginosa PAO1 […]: diluted MH ([…] MH, pH 8.5) per Table 1 footnote b, 16–20 h at 37 °C; for MIC P. aeruginosa PAO1 Full MH 7.4 / MIC P. aeruginosa PAO1 Full MH 8.5 / MIC P. aeruginosa PAO1 Full: full MH; for MIC P. aeruginosa PAO1 Full: pH 7.4, 16–20 h at 37 °C
Outline: as §2

[5] = system: A. baumannii ATCC19606; conditions: for MIC A. baumannii ATCC19606 […] 7.4 / MIC A. baumannii ATCC19606 […] 8.5 / MIC A. baumannii ATCC19606 Full MH 7.4 / MIC A. baumannii ATCC19606 Full MH 8.5: Table S2; for MIC A. baumannii ATCC19606 […] 7.4 / MIC A. baumannii ATCC19606 […] 8.5: […] MH; for MIC A. baumannii ATCC19606 […]: diluted MH ([…] MH, pH 8.5) per Table 1 footnote b, 16–20 h at 37 °C; for MIC A. baumannii ATCC19606 Full MH 7.4 / MIC A. baumannii ATCC19606 Full MH 8.5 / MIC A. baumannii ATCC19606 Full: full MH; for MIC A. baumannii ATCC19606 Full: pH 7.4, 16–20 h at 37 °C
Outline: as §1

[6] = system: A549 cells; experiment: Cell viability assay by Alamar blue; type: cell-based; conditions: CSV; read-out: Toxicity on A549 lung cancern cells
Protocol: The data are represented as the mean value ± SD, n = 3. […] (c) Vesicle leakage assay for a selection of compounds. Lipid vesicles made of EYPG or EYPC were suspended in a buffer (10 mM TRIS, 107 mM NaCl, pH 7.4). After 45 s, the indicated compound was added to reach the desired concentration. After 240 s, 30 μL of 1.2% TritonX-100 was added for full fluorescein release. […] See Supporting Information for the full curves, all of the data, and procedures.
HEK293 cells were cultured and maintained in DMEM high glucose (Dulbecco’s modified Eagle medium, Sigma Aldrich) medium supplemented with 10% FBS (Sigma Aldrich) and 1% penicillin/streptomycin. A549 cells were cultured and maintained in RPMI-1640 medium (Sigma Aldrich), supplemented with 10% FBS (Sigma Aldrich) and 1% penicillin/streptomycin. The cells were handled and subcultured according to the manufacturer instructions. Cells were incubated in a humidified incubator at 37 °C in the presence of 5% CO2.
Assays on HEK293, A549 cells were performed as described earlier.[74] […]

Compound	MIC K. pneumoniae NCTC418 […] 7.4 ([2]; pH 7.4) [µg/mL]	MIC K. pneumoniae NCTC418 […] 8.5 ([2]; pH 8.5) [µg/mL]	MIC K. pneumoniae NCTC418 Full MH 7.4 ([2]; pH 7.4) [µg/mL]	MIC K. pneumoniae NCTC418 Full MH 8.5 ([2]; pH 8.5) [µg/mL]	MIC P. aeruginosa PA14 4.18, […] MH at pH 8.5 [3] [ug/mL]	MIC P. aeruginosa PA14 4.18 [3] [µg/mL]	MIC P. aeruginosa PAO1 […] 7.4 ([4]; pH 7.4) [µg/mL]	MIC P. aeruginosa PAO1 […] 8.5 [4] [µg/mL]	MIC P. aeruginosa PAO1 Full MH 7.4 ([4]; pH 7.4) [µg/mL]	MIC P. aeruginosa PAO1 Full MH 8.5 [4] [µg/mL]	MIC A. baumannii ATCC19606 […] 7.4 ([5]; pH 7.4) [µg/mL]	MIC A. baumannii ATCC19606 […] 8.5 ([5]; pH 8.5) [µg/mL]	MIC A. baumannii ATCC19606 Full MH 7.4 ([5]; pH 7.4) [µg/mL]	MIC A. baumannii ATCC19606 Full MH 8.5 ([5]; pH 8.5) [µg/mL]	IC50 [6] [µM]	MIC K. pneumoniae NCTC418, […] MH at pH 7.4 ([2]; CSV) [ug/mL]	MIC K. pneumoniae NCTC418, […] MH at pH 8.5 ([2]; CSV) [ug/mL]	MIC K. pneumoniae NCTC418, full MH at pH 7.4 ([2]; CSV, full MH at pH 7.4) [ug/mL]	MIC K. pneumoniae NCTC418, full MH at pH 8.5 ([2]; CSV, full MH at pH 8.5) [ug/mL]	MIC K. pneumoniae NCTC418 […] [2] [µg/mL]	further results
CC(C)C[C@H](NC(=O)CN(CC(C)C)C(=O)[C@H](CC(C)C)NC(=O)CN(CCCCN)C(=O)[C@H](CC(C)C)NC(=O)CN(CC(C)C)C(=O)[C@H](CCCCN)NC(=O)CN(CC(C)C)C(=O)[C@H](CC(C)C)NC(=O)CN(CCCCN)C(=O)[C@@H](N)CCCCN)C(N)=O [EB9, KkLlKlLkLlL] (H-K[Nlys]L[Nleu]K[Nleu]L[Nlys]L[Nleu]L-NH2)	> 32	16 (≈ 12.1 µM)	> 32	> 32	6	4 to 8	4 (≈ 3.03 µM)	2 (≈ 1.51 µM)	32 (≈ 24.2 µM)	> 32	16 (≈ 12.1 µM)	8 (≈ 6.05 µM)	> 32	> 32							Time–kill, killing profile [1]: Bacteria could still be detected after 6 h; MIC K. pneumoniae NCTC418, full MH at pH 7.4 ([2]; NCTC418, 4 h, pH 7.4): >32 ug/mL; MIC K. pneumoniae NCTC418, full MH at pH 8.5 ([2]; NCTC418, 4 h, pH 8.5): >32 ug/mL; MIC PA14 4.18 (pmrB) ([3]; diluted MH ([…] MH) at pH 8.5 (Table 2 footnote b)): 4 to 8 µg/mL; Antibacterial activity as a function of NaCl concentration ([4]; P. aeruginosa PAO1, […] MH at pH 8.5, up to 300 mM NaCl): strongly reduced; MIC P. aeruginosa PAO1, full MH at pH 7.4 ([4]; PAO1, 4 h, pH 7.4): 32 ug/mL; MIC A. baumannii ATCC19606, full MH at pH 7.4 ([5]; ATCC19606, 4 h, pH 7.4): >32 ug/mL; MIC A. baumannii ATCC19606, full MH at pH 8.5 ([5]; ATCC19606, 4 h, pH 8.5): >32 ug/mL
CC(C)C[C@H](NC(=O)[C@H](CC(C)C)NC(=O)[C@H](CC(C)C)NC(=O)[C@@H](CCCCN)NC(=O)[C@H](CC(C)C)NC(=O)[C@H](CC(C)C)NC(=O)[C@@H](CCCCN)NC(=O)[C@H](CC(C)C)NC(=O)[C@H](CC(C)C)NC(=O)[C@@H](CCCCN)NC(=O)[C@H](N)CCCCN)C(N)=O [ln69, kkLLkLLkLLL, reference compound] (H-[dK][dK]LL[dK]LL[dK]LLL-NH2)	4 (≈ 3.03 µM)	2 (≈ 1.51 µM)	8 (≈ 6.05 µM)	16 (≈ 12.1 µM)	4	4 (≈ 3.03 µM)	4 (≈ 3.03 µM)	2 (≈ 1.51 µM)	8 (≈ 6.05 µM)	8 (≈ 6.05 µM)	2 (≈ 1.51 µM)	2 (≈ 1.51 µM)	2 to 4	8 to 16	21 ± 3	4	2	8	16	4 (≈ 3.03 µM)	MIC K. pneumoniae NCTC418 Full [2]: 8 µg/mL (≈ 6.05 µM); MIC P. aeruginosa PA14 4.18, full MH at pH 7.4 [3]: 16 ug/mL; MIC PA14 4.18 (pmrB) ([3]; MH pH 7.4, 16–20 h at 37 °C): 16 µg/mL (≈ 12.1 µM); MIC P. aeruginosa PAO1, […] MH at pH 7.4 ([4]; CSV): 4 ug/mL; MIC P. aeruginosa PAO1, […] MH at pH 8.5 ([4]; CSV): 2 ug/mL; MIC P. aeruginosa PAO1, full MH at pH 7.4 ([4]; CSV, full MH at pH 7.4): 8 ug/mL; MIC P. aeruginosa PAO1, full MH at pH 8.5 ([4]; CSV): 8 ug/mL; MIC P. aeruginosa PAO1 […] [4]: 4 µg/mL (≈ 3.03 µM); MIC P. aeruginosa PAO1 Full [4]: 8 µg/mL (≈ 6.05 µM); MIC A. baumannii ATCC19606, […] MH at pH 7.4 ([5]; CSV): 2 ug/mL; MIC A. baumannii ATCC19606, […] MH at pH 8.5 ([5]; CSV): 2 ug/mL; MIC A. baumannii ATCC19606, full MH at pH 7.4 ([5]; CSV, full MH at pH 7.4): 3 ug/mL; MIC A. baumannii ATCC19606, full MH at pH 8.5 ([5]; CSV, full MH at pH 8.5): 12 ug/mL; MIC A. baumannii ATCC19606 […] [5]: 2 µg/mL (≈ 1.51 µM); MIC A. baumannii ATCC19606 Full [5]: 2 to 4 µg/mL
H-KKLLKLLKLLL-NH2 [ln65, reference compound]	2 to 4	2	4	8	3	2 to 4	4	4	2 to 4	16	4	2	2 to 4	8	20 ± 1	3	2	4	8	2 to 4	MIC K. pneumoniae NCTC418 Full [2]: 4 µg/mL; MIC P. aeruginosa PA14 4.18, full MH at pH 7.4 [3]: 32 ug/mL; MIC PA14 4.18 (pmrB) ([3]; MH pH 7.4, 16–20 h at 37 °C): 32 µg/mL; MIC P. aeruginosa PAO1, […] MH at pH 7.4 ([4]; CSV): 4 ug/mL; MIC P. aeruginosa PAO1, […] MH at pH 8.5 ([4]; CSV): 4 ug/mL; MIC P. aeruginosa PAO1, full MH at pH 7.4 ([4]; CSV, full MH at pH 7.4): 3 ug/mL; MIC P. aeruginosa PAO1, full MH at pH 8.5 ([4]; CSV): 16 ug/mL; MIC P. aeruginosa PAO1 […] [4]: 4 µg/mL; MIC P. aeruginosa PAO1 Full [4]: 2 to 4 µg/mL; MIC A. baumannii ATCC19606, […] MH at pH 7.4 ([5]; CSV): 4 ug/mL; MIC A. baumannii ATCC19606, […] MH at pH 8.5 ([5]; CSV): 2 ug/mL; MIC A. baumannii ATCC19606, full MH at pH 7.4 ([5]; CSV, full MH at pH 7.4): 3 ug/mL; MIC A. baumannii ATCC19606, full MH at pH 8.5 ([5]; CSV, full MH at pH 8.5): 8 ug/mL; MIC A. baumannii ATCC19606 […] [5]: 4 µg/mL; MIC A. baumannii ATCC19606 Full [5]: 2 to 4 µg/mL
